Assay [1] deals with T1, Enoyl-[acyl-carrier-protein] reductase [NADPH] FabI (Staphylococcus aureus) (UniProt Q6GI75).
T1 sequence (whole entry): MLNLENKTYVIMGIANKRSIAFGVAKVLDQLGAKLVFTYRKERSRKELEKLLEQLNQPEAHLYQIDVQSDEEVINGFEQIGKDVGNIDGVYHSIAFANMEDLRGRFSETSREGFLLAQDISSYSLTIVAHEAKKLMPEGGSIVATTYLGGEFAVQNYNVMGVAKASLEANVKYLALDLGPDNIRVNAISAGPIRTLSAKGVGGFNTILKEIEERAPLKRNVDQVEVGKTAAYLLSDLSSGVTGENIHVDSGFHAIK
The experiment in a line: Inhibition of N-terminal his 6 tagged Staphylococcus aureus Fabi (1 to […] residues) expressed in Escherichia coli BL21 at 10 uM incubated for 30 mins in presence of NADPH by fluorescence based microplate reader analysis relative to control.

The target of assay [2] is T1, Enoyl-[acyl-carrier-protein] reductase [NADPH] FabI (Staphylococcus aureus). The experiment in a line: Inhibition of N-terminal his 6 tagged Staphylococcus aureus Fabi (1 to […] residues) expressed in Escherichia coli BL21 at 1 uM incubated for 30 mins in presence of NADPH by fluorescence based microplate reader analysis relative to control.
The subject of assay [3] is Staphylococcus aureus. The experiment in a line: Antimicrobial activity against […] Staphylococcus aureus ATCC33591 measured after 24 hrs by CLSI protocol based microdilution method. The assay is classed as functional. (In broth dilution the organism is exposed to a series of concentrations in liquid medium.)
For assay [4], the system named is Staphylococcus aureus. The experiment in a line: Antimicrobial activity against […] Staphylococcus aureus ATCC43300 measured after 24 hrs by CLSI protocol based microdilution method. It is filed as functional.
The test system of assay [5] is Staphylococcus aureus. The assay is described as follows: Antimicrobial activity against […] Staphylococcus aureus USA300 measured after 24 hrs by CLSI protocol based microdilution method. It is filed as functional.
In assay [6] the test system is Staphylococcus aureus. The assay is described as follows: Antimicrobial activity against […] Staphylococcus aureus NRS271 measured after 24 hrs by CLSI protocol based microdilution method. The assay is classed as functional.
In assay [7] the test system is Staphylococcus aureus. The assay is described as follows: Antimicrobial activity against methicillin-susceptible Staphylococcus aureus ATCC29213 measured after 24 hrs by CLSI protocol based microdilution method. It is filed as functional.
In assay [8] the test system is Staphylococcus aureus. The experiment in a line: Antimicrobial activity against methicillin-susceptible Staphylococcus aureus ATCC25923 measured after 24 hrs by CLSI protocol based microdilution method. It is filed as functional.
Assay [9] has as its system Enterococcus faecium. The assay is described as follows: Antimicrobial activity against Enterococcus faecium ATCC19434 measured after 24 hrs by CLSI protocol based microdilution method. The assay is classed as functional.
Assay [10] deals with Enterococcus faecalis. The assay is described as follows: Antimicrobial activity against Enterococcus faecalis ATCC29212 measured after 24 hrs by CLSI protocol based microdilution method. It is filed as functional.
Assay [11] relates to Pseudomonas aeruginosa. The experiment in a line: Antimicrobial activity against Pseudomonas aeruginosa PAO1 measured after 24 hrs by CLSI protocol based microdilution method. The assay is classed as functional.
Assay [12] concerns Escherichia coli. The assay is described as follows: Antimicrobial activity against Escherichia coli ATCC25922 measured after 24 hrs by CLSI protocol based microdilution method. It is filed as functional.
In assay [13] the test system is Acinetobacter baumannii. The assay is described as follows: Antimicrobial activity against Acinetobacter baumannii ATCC19606 measured after 24 hrs by CLSI protocol based microdilution method. It is filed as functional.
In assay [14] the test system is Candida albicans. The experiment in a line: Antimicrobial activity against Candida albicans SC5314 measured after 48 hrs by CLSI protocol based microdilution method. It is filed as functional.

Each structure is given as a SMILES string.

The record followed here is ChEMBL document CHEMBL5500393, “Discovery and Optimization of Novel SaFabI Inhibitors as Specific Therapeutic Agents for MRSA Infection” (J Med Chem, 2024).

Usually inhibition stands for the change of the read-out against control, counted positive when it falls. The term MIC denotes the lowest concentration found to suppress growth. As for `Cn1c(C2CC(=O)N(CCc3ccccc3)C2)nc2ccccc21` (centres undefined), the inhibition came to 3.9% in [1] and 5.8% in assay [2]. Besides, the MIC in assay [3], in [4], in assay [5], in [6], in [7] and in [8] was over 32 µg/mL throughout. Further, the MIC in assay [9], in [10], in assay [11], in assay [12], in [13] and in assay [14] was over 32 µg/mL throughout.
With `Cc1c(Br)cccc1N1CC(c2nc3ccccc3[nH]2)CC1=O` (centres undefined), the inhibition in assay [1] was 36.6%; in assay [2] it was 11.6%. Moreover, the MIC in assay [3], in assay [4], in assay [5], in [6], in [7] and in assay [8] was over 32 µg/mL throughout. The MIC in assay [9], in [10], in assay [11], in assay [12], in [13] and in assay [14] was over 32 µg/mL in each case.
With `Cn1c(C(=O)NCc2ccccc2)nc2ccccc21`, the inhibition in assay [1] stood at 4.7%; in assay [2], 6.2%. In addition, the MIC in [3], in [4], in [5], in [6], in assay [7] and in assay [8] was over 32 µg/mL in each case. The MIC in assay [9], in assay [10], in assay [11], in [12], in [13] and in [14] was over 32 µg/mL each time.
As to `Cn1ccc(N2CC(c3nc4ccccc4n3C)CC2=O)n1` (centres undefined), the inhibition in assay [1] was 4.3%; in assay [2], 5.1%. Also, the MIC in assay [3], in assay [4], in [5], in assay [6], in [7] and in assay [8] was over 32 µg/mL in each case. In addition, the MIC in assay [9], in [10], in assay [11], in [12], in assay [13] and in assay [14] was over 32 µg/mL each time.
`Cn1c(C(=O)Nc2cccc(C(=O)NCc3ccccc3)c2)nc2ccccc21`: the inhibition in assay [1] turned out to be 4%; in assay [2], 6.8%. The MIC in [3], in assay [4], in assay [5], in assay [6], in [7] and in assay [8] was over 32 µg/mL throughout. For the same compound, the MIC in assay [9], in assay [10], in assay [11], in [12], in [13] and in assay [14] was over 32 µg/mL in each case.
For the compound `Cn1c(C2CC(=O)N(c3cccc(Br)c3OCC(F)(F)F)C2)nc2ccccc21` (centres undefined), the inhibition in assay [1] turned out to be 18.8%; in assay [2], 2.1%. Besides, the MIC in assay [3], in assay [4], in assay [5], in assay [6], in assay [7] and in assay [8] was over 32 µg/mL throughout. Also, the MIC in assay [9], in assay [10], in assay [11], in assay [12], in assay [13] and in assay [14] was over 32 µg/mL throughout.
